pIC50: −log10 of the molar value.
How the values were obtained:
Cytochrome P450 2D6 = Cytochrome P450 2D6 (Homo sapiens, UniProt P10635); assay: Inhibition of CYP2D6; assay type: ADME
Liver microsomes [1] = assay: Clearance in rat liver microsome; assay type: ADME
[2] = Solubility of the compound; assay type: physicochemical
[3] = Permeability coefficient across PAMPA; assay type: ADME; conditions: read-out: permeability
Liver microsomes [4] = assay: Clearance in human liver microsome; assay type: ADME
Cytochrome P450 3A4 = Cytochrome P450 3A4 (Homo sapiens, UniProt P08684); assay: Inhibition of CYP3A4; assay type: ADME
Cytochrome P450 2C9 = Cytochrome P450 2C9 (Homo sapiens, UniProt P11712); assay: Inhibition of CYP2C9; assay type: ADME
Rattus norvegicus = assay: Reduction in glucose level in fa/fa rat after oral glucose tolerance test at 0.3 mg/kg administered 2 hrs before glucose challenge; assay type: functional; design: scale not given: the % may be the effect or the level left
[5] = Distribution coefficient, log D at pH 7.4; assay type: physicochemical; conditions: octanol/water

Chain of Cytochrome P450 3A4 (P08684 whole entry): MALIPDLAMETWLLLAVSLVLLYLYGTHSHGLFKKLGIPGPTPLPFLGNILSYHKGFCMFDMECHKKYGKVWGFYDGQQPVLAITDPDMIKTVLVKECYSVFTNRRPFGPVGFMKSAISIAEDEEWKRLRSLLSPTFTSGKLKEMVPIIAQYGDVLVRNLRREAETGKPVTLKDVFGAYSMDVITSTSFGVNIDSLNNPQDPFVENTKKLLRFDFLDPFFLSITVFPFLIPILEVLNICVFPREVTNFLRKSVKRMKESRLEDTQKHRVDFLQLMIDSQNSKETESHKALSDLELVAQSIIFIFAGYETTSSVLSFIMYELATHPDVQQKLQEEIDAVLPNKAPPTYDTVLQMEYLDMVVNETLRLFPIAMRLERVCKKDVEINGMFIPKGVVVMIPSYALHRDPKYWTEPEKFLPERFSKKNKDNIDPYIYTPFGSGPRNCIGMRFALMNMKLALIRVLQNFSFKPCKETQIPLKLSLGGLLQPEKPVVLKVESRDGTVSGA
Chain of Cytochrome P450 2D6 (P10635 whole entry): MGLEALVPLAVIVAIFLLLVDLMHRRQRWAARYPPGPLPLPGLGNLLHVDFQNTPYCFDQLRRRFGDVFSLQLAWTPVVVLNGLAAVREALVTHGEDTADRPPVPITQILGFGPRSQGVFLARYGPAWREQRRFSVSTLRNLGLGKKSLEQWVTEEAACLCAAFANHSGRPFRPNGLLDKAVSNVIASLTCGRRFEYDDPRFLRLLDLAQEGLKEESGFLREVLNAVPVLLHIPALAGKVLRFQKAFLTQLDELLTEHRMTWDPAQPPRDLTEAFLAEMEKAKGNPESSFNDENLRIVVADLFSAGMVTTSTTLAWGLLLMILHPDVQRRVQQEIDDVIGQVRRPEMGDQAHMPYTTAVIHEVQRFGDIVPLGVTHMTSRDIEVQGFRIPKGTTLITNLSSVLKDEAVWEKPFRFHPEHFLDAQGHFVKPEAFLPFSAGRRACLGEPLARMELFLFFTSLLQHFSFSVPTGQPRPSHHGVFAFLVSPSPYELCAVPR
Chain of Cytochrome P450 2C9 (P11712 whole entry): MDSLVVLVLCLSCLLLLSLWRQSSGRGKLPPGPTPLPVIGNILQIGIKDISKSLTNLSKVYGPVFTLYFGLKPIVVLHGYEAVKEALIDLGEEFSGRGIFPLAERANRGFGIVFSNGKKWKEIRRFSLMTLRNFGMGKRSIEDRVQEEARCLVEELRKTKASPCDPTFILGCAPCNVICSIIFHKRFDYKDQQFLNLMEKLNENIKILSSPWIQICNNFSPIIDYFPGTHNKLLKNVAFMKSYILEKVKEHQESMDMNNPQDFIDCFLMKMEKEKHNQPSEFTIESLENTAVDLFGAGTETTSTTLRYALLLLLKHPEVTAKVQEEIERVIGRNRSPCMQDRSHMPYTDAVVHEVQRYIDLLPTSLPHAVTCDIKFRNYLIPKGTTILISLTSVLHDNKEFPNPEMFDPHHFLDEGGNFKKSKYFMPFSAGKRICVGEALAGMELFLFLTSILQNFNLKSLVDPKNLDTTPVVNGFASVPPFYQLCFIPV

pIC50 (Cytochrome P450 2D6)	clearance (Liver microsomes [1]) [µL/min/mg]	Solubility [2] [µg/mL]	Papp [3] [×10⁻⁶ cm/s]	clearance (Liver microsomes [4]) [µL/min/mg]	pIC50 (Cytochrome P450 3A4)	pIC50 (Cytochrome P450 2C9)	logD [5]	Compound	Activity (Rattus norvegicus) [%]
4.96	1	> 469	3.4	3	< 4.30	4.82	1.3	COc1cc2c(cc1OC)[C@@H]1C[C@H](N)[C@@H](c3cccc(C)c3)CN1CC2	-41
< 4.30	4.7	> 414	2.5	0	< 4.30	< 4.30	0.8	CCCC[C@H]1CN2CCc3cc(OC)c(OC)cc3[C@@H]2C[C@@H]1N	-16

Source: ChEMBL document CHEMBL1147972, “1,3-disubstituted 4-aminopiperidines as useful tools in the optimization of the 2-aminobenzo[a]quinolizine dipeptidyl peptidase IV inhibitors” (Bioorg Med Chem Lett, 2007)
